The NIST ThermoML archive (doi:10.1016/j.jct.2009.07.021)
Where “and” joins values, the source holds several entries; their conditions need not be identical. Equal entries are not always repeated.

Columns and labels:
[1] = Crystal, Calculated from knudsen effusion weight loss
[2] = molar enthalpy of transition or fusion; settings: 298.15 K; Crystal; Clausius-Clapeyron Eq with Heat Capacity

CC(=O)c1cc(-c2ccccc2)sc1C [3-acetyl-2-methyl-5-phenylthiophene]
[1]
Settings | vapor or sublimation pressure
321.12 K | 6.03e-05 kPa and 6.33e-05 kPa and 6.05e-05 kPa
323.13 K | 7.9e-05 kPa and 7.98e-05 kPa and 7.73e-05 kPa
325.21 K | 0.000102 kPa and 9.93e-05 kPa and 0.0001 kPa
327.12 K | 0.000128 kPa and 0.000126 kPa and 0.00013 kPa
329.16 K | 0.000162 kPa and 0.00016 kPa and 0.000159 kPa
331.2 K | 0.00021 kPa and 0.000202 kPa and 0.000204 kPa
333.12 K | 0.000259 kPa and 0.000261 kPa and 0.000258 kPa
335.15 K | 0.000328 kPa and 0.000322 kPa and 0.000323 kPa
336.13 K | 0.000366 kPa and 0.000371 kPa and 0.000368 kPa
337.2 K | 0.000425 kPa and 0.000414 kPa and 0.000409 kPa
338.15 K | 0.000461 kPa and 0.000462 kPa and 0.00046 kPa
339.2 K | 0.000535 kPa and 0.000522 kPa and 0.000515 kPa

Settings | molar enthalpy of transition or fusion [kcal/mol]
[2] | 26.03
